Legend:
Trypanosoma cruzi [1] = test: Antiparasitic activity against amastigote stage of Trypanosoma cruzi Y; format: functional, organism-based
Leishmania infantum [2] = test: Antiparasitic activity against amastigote stage of Leishmania infantum infected in BALB/c mouse peritoneal macrophages assessed as reduction of parasite burden after 120 hrs by Giemsa staining-based light microscopic analysis; format: functional, organism-based
Trypanosoma cruzi [3] = test: Antiparasitic activity against trypomastigote stage of Trypanosoma cruzi Y assessed as parasite viability after 24 hrs by MTT assay; format: functional, organism-based
[4] = Selectivity index, ratio of CC50 for mouse […] cells to IC50 for Leishmania infantum promastigotes; format: functional, NCTC-929
Leishmania infantum [5] = test: Antiparasitic activity against promastigote stage of Leishmania infantum assessed as parasite viability after 24 hrs by MTT assay; format: functional, organism-based
[6] = Cytotoxicity against mouse NCTC-929 cells assessed as cell viability after 48 hrs by MTT assay; format: cell-based
[7] = Selectivity index, ratio of CC50 for mouse […] cells to IC50 for Trypanosoma cruzi Y amastigotes; format: functional
[8] = Selectivity index, ratio of CC50 for mouse […] cells to IC50 for Trypanosoma cruzi Y trypomastigotes; format: functional
Leishmania infantum [9] = test: Potency index, ratio of gibbilimbol B IC50 to compound IC50 for amastigote stage of Leishmania infantum infected in BALB/c mouse peritoneal macrophages; format: functional
[10] = Selectivity index, ratio of CC50 for mouse […] cells to IC50 for Leishmania infantum amastigotes; format: functional
[11] = Leishmania infantum, 24 h, read-out: IC50
[12] = Trypanosoma cruzi, Y, read-out: IC50
[13] = Trypanosoma cruzi, Y, 24 h, read-out: IC50
[14] = Leishmania infantum, 120 h, read-out: IC50

IC50 (Trypanosoma cruzi [1]) | IC50 (Leishmania infantum [2]) | IC50 (Trypanosoma cruzi [3]) | IC50 (Trypanosoma cruzi [1]; [12]) | IC50 (Trypanosoma cruzi [3]; [13]) | IC50 (Leishmania infantum [2]; [14]) | SMILES | Ratio CC50/IC50 [4] | IC50 (Leishmania infantum [5]; [11]) | CC50 at 48 h [6] | Ratio CC50/IC50 [7] | Ratio CC50/IC50 [8] | Ratio IC50 (Leishmania infantum [9]) | Ratio CC50/IC50 [10] | IC50 (Leishmania infantum [5])
Not Active | Not Active | Not Active |  |  |  | CCCCCCCC/N=C/c1ccc(O)cc1 | 5 | 19.9 µM | 99.2 µM |  |  |  |  | 
 | Not Active |  | 22.5 µM | 11.8 µM |  | CCCCCCCC(=O)/C=C/c1ccc(O)cc1 | 1 | 82.7 µM | 82.8 µM | 3.7 | 7 |  |  | 
 |  |  | 230 µM |  |  | O=C(Cn1ccnc1[N+](=O)[O-])NCc1ccccc1 [BENZNIDAZOLE] |  |  | 270 µM |  |  |  |  | 
 |  |  | 5.5 µM | 17 µM | 1.8 µM | CCCCCCCCNCc1ccc(O)cc1 | 0.8 | 28.6 µM | 23.5 µM | 4.3 | 1.4 | 52 | 13.1 | 
 |  |  |  |  | 16.4 µM | CCCCCCCCCCCCCCCCOP(=O)([O-])OCC[N+](C)(C)C [MILTEFOSINE] | 14.5 | 16.7 µM | 241 µM |  |  |  | 14.7 | 
Not Active | Not Active |  |  | 6.1 µM |  | CCCCCCCC(O)/C=C/c1ccc(O)cc1 (centres undefined) | 0.4 | 125 µM | 49.5 µM |  | 8.1 |  |  | 
Not Active | Not Active |  |  | 4.5 µM |  | CCCCCCCCOC(=O)c1ccc(O)cc1 | 1.1 | 123 µM | 130 µM |  | 29 |  |  | 
Not Active | Not Active |  |  | 26.5 µM |  | CCCCCCCCNC(=O)c1ccc(O)cc1 | 1 | 45.1 µM | 45.4 µM |  | 1.7 |  |  | 
Not Active | Not Active | Not Active |  |  |  | CCCCNCc1ccc(O)cc1 | >9.5 | 31.6 µM | > 300 µM |  |  |  |  | 
 | Not Active | Not Active | 26.4 µM |  |  | CCCCOC(=O)c1ccc(O)cc1 [BUTYLPARABEN] |  |  | 168 µM | 6.4 |  |  |  | Not Active

Source: ChEMBL document CHEMBL3763101, “Gibbilimbol analogues as antiparasitic agents--Synthesis and biological activity against Trypanosoma cruzi and Leishmania (L.) infantum” (Bioorg Med Chem Lett, 2016)
